According to article PMC5963757, “Expression, purification, and inhibition profile of dihydrofolate reductase from the filarial nematode Wuchereria bancrofti” (PLoS ONE, 2018):
Values joined by “and” are separate entries in the source; they are usually repeats but may differ in a detail not shown here. Equal entries are not always repeated. “Also recorded” adds a separate entry of the source. Where two headings read alike, the source gives them in different places.

Tests used:
WbDHFR [1] = biological target: T1, WbDHFR (Wuchereria bancrofti, UniProt J9F199); format: biochemical; settings: for inhibition of WbDHFR (in words): pH 6.0, 25°C
Protocol: (§1) Compounds (-)-epicatechin, (-)-epicatechin gallate, and vitexin were tested as inhibitors of WbDHFR and BmDHFR. The compounds (-)-epicatechin and (-)-epicatechin gallate were synthesized as described previously. […] Disappearance of DHF and NADPH was observed by measuring absorbance at 340 nm to measure the DHFR activity in a SpectraMax M3 microplate reader. […] All experiments were completed in triplicate.

BmDHFR [2] = biological target: T2, BmDHFR (Brugia malayi, UniProt A0A4E9FIQ4); assay: biochemical; format: biochemical; settings: for inhibition of BmDHFR (in words): pH 6.0, 25°C
Protocol: as §1
A linear equation was fitted to the data at each substrate concentration. […] The KI values for BmDHFR in Table 1 were obtained using the Cheng-Prusoff Equation [18]. […] Inhibitor structures are shown in supporting information (S2 Fig).

BmDHFR [3] = biological target: T2, BmDHFR; parameters: method as in PMID 26669020; settings: computational prediction, cited from earlier work
WbDHFR [4] = biological target: T1, WbDHFR; assay: Michaelis-Menten kinetics of WbDHFR, KM for DHF; format: biochemical; settings: pH 6.0, 25°C, 100 μM NADPH, MTEN buffer; ± S.D.
Protocol: To characterize DHFR enzymatic activity, we measured absorbance at 340 nm to follow the disappearance of DHF substrate and NADPH cofactor over time. The KM of WbDHFR for DHF was determined over a concentration range of 3.8 to 195 μM DHF, at 25°C, in MTEN buffer (50 mM 2-morpholinoethane sulphonic acid (MES), 25 mM Tris, 25 mM ethanolamine, 100 mM NaCl, and 1mM DTT) at pH 6.0. Initial velocity was plotted as a function of DHF concentration using KaleidaGraph and the Michaelis-Menten equation was fitted to the data. Catalytic activities of WbDHFR and BmDHFR were determined at various pH values (5.5–9.0) in MTEN buffer. The MTEN buffer used for all the reported assays has essentially a constant ionic strength at 0.15 over the pH range for which pH values were measured. Initial velocity was plotted as a function of pH using Excel.
Fig 2 Representative Michaelis-Menten curve. The conditions in the experimental wells (200 μL) were 100 μM NADPH, 12.4 nM WbDHFR in 1 X MTEN buffer at pH 6.0 with DHF concentrations ranging from 0 to 195 μM. The Michaelis-Menten equation was fitted to the data using KaleidaGraph. The Michaelis-Menten constant for DHF was determined by averaging values from fitting three separate data sets and found to be 3.7 ± 2.0 μM (S.D.).

BmDHFR [5] = biological target: T2, BmDHFR; settings: read-out: KM previously determined for BmDHFR; cited from earlier work
BmDHFR [6] = biological target: T2, BmDHFR; parameters: method as in PMID 27544923; settings: read-out: IC50 BmDHFR found previously; cited from earlier work
[7] = pH 6.0, 100 μM NADPH, 50 μM DHF, 40 nM BmDHFR, average of triplicates ± S.D., read-out: IC50 BmDHFR
[8] = read-out: predicted KI against BmDHFR
[9] = IC50 BmDHFR, pH 6.0, 100 μM NADPH, 50 μM DHF, 40 nM BmDHFR, average of triplicates ± S.D.
[10] = IC50 against BmDHFR Average, average of three trials
[11] = IC50 against BmDHFR Trial 1, individual trial
[12] = IC50 against BmDHFR Trial 2, individual trial
[13] = IC50 against BmDHFR Trial 3, individual trial
[14] = average of three trials, read-out: IC50 against BmDHFR Average
[15] = individual trial, read-out: IC50 against BmDHFR Trial 1
[16] = individual trial, read-out: IC50 against BmDHFR Trial 2
[17] = obtained using the Cheng-Prusoff Equation, upper limit for tight-binding inhibitors, read-out: KI BmDHFR

Compound: Oc1cc(O)c2c(c1)O[C@H](c1ccc(O)c(O)c1)[C@H](O)C2 [(-)-Epicatechin, (-)-epicatechin]
- inhibition of WbDHFR (in words) (WbDHFR [1]): did not observe inhibition; also recorded: neither compound showed any inhibitory activity
- IC50 (BmDHFR [2]; [7]): > 2500 µM
- inhibition of BmDHFR (in words) (BmDHFR [2]): did not observe inhibition; also recorded: neither compound showed any inhibitory activity
- Ki (BmDHFR [3]; [8]): 76 µM

Compound: Nc1nc(N)c2nc(CNc3ccc(C(=O)N[C@@H](CCC(=O)O)C(=O)O)cc3)cnc2n1 [Aminopterin, aminopterin]
- inhibition of WbDHFR (in words) (WbDHFR [1]): inhibit
- Ki (BmDHFR [2]): < 0.0017 µM
- IC50 (BmDHFR [2]; [9]): 0.0075 ± 0.0003 µM
- IC50 (BmDHFR [2]; [10]): 0.00755 µM
- IC50 (BmDHFR [2]; [11]): 0.0072 µM
- IC50 (BmDHFR [2]; [12]): 0.0076 µM
- IC50 (BmDHFR [2]; [13]): 0.00784 µM

Compound: Nc1nc(=O)c2c([nH]1)NCC(CNc1ccc(C(=O)N[C@@H](CCC(=O)O)C(=O)O)cc1)=N2 [DHF, dihydrofolate]
- Km (WbDHFR [4]): 3.7 ± 2 µM
- Km (BmDHFR [5]): 14.7 ± 3.6 µM

Compound: Cc1nc2ccc(CN(C)c3ccc(C(=O)N[C@@H](CCC(=O)O)C(=O)O)s3)cc2c(=O)[nH]1 [Raltitrexed, raltitrexed]
- inhibition of WbDHFR (in words) (WbDHFR [1]): inhibit
- IC50 (BmDHFR [2]; [14]): 7.3 µM
- IC50 (BmDHFR [2]; [15]): 7.1 µM
- IC50 (BmDHFR [2]; [16]): 6.83 µM
- Ki (BmDHFR [2]; [17]): 1.6 ± 0.04 µM
- IC50 (BmDHFR [2]; [7]): 7.3 ± 0.2 µM

Compound: (-)-epicatechin gallate
- IC50 (WbDHFR [1]; pH 6.0, 100 μM NADPH, 50 μM DHF, 12.1 nM WbDHFR, average of triplicates ± S.D., read-out: IC50 WbDHFR): > 1000 µM
- inhibition of WbDHFR (in words) (WbDHFR [1]): did not observe inhibition; also recorded: neither compound showed any inhibitory activity
- IC50 (BmDHFR [2]; [7]): > 1000 µM
- inhibition of BmDHFR (in words) (BmDHFR [2]): did not observe inhibition; also recorded: neither compound showed any inhibitory activity
- Ki (BmDHFR [3]; [8]): 48 µM

Compound: CCc1nc(N)nc(N)c1-c1ccc(Cl)cc1 [Pyrimethamine, pyrimethamine]
- inhibition of WbDHFR (in words) (WbDHFR [1]): inhibit
- IC50 (BmDHFR [2]; [14]): 16 µM
- IC50 (BmDHFR [2]; [15]): 16.4 µM
- IC50 (BmDHFR [2]; [16]): 21.8 µM
- IC50 (BmDHFR [2]; individual trial, read-out: IC50 against BmDHFR Trial 3): 8.7 µM
- Ki (BmDHFR [2]; [17]): 3.6 ± 1.5 µM
- IC50 (BmDHFR [2]; [7]): 15.6 µM and 16 µM
- IC50 (BmDHFR [6]): 109 ± 34 µM

Compound: O=c1cc(-c2ccc(O)cc2)oc2c([C@@H]3O[C@H](CO)[C@@H](O)[C@H](O)[C@H]3O)c(O)cc(O)c12 [Vitexin, vitexin]
- inhibition of WbDHFR (in words) (WbDHFR [1]): did not observe inhibition
- IC50 (BmDHFR [2]; [9]): > 240 µM
- inhibition of BmDHFR (in words) (BmDHFR [2]): did not observe any inhibition
- Ki (BmDHFR [3]; read-out: predicted inhibitor of BmDHFR): 0.465 µM

Compound: COc1cc(Cc2cnc(N)nc2N)cc(OC)c1OC [Trimethoprim, trimethoprim]
- inhibition of WbDHFR (in words) (WbDHFR [1]): inhibit
- Ki (BmDHFR [2]): 15 ± 3 µM
- IC50 (BmDHFR [2]; [9]): 65 ± 13 µM
- IC50 (BmDHFR [2]; [10]): 64.7 µM
- IC50 (BmDHFR [2]; [11]): 80.4 µM
- IC50 (BmDHFR [2]; [12]): 61.1 µM
- IC50 (BmDHFR [2]; [13]): 48.9 µM
- Ki (BmDHFR [3]; [8]): 11 µM

Compound: CN(Cc1cnc2nc(N)nc(N)c2n1)c1ccc(C(=O)N[C@@H](CCC(=O)O)C(=O)O)cc1 [Methotrexate, methotrexate]
- inhibition of WbDHFR (in words) (WbDHFR [1]): inhibit
